Experimental data taken from ChEMBL document CHEMBL1138077, “Arylpiperazines with N-acylated amino acids as 5-HT1A receptor ligands” (Bioorg Med Chem Lett, 2006).

target: T1, 5-hydroxytryptamine receptor 1A (Homo sapiens, UniProt P08908); assay: Affinity for 5HT1A receptor
T1 sequence (P08908 whole entry): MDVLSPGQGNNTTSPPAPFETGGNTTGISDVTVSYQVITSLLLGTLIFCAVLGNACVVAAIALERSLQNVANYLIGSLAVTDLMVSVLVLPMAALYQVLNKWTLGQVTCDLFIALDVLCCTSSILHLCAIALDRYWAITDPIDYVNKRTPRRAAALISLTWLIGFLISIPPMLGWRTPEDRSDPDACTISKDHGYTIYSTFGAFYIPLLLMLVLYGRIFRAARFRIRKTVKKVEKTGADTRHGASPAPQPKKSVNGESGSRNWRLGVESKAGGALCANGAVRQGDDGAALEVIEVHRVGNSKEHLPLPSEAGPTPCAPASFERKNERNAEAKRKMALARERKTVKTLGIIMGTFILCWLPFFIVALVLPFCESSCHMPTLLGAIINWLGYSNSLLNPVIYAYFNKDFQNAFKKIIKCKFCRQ

Ki	Structure (SMILES)
17 nM	COc1ccccc1N1CCN(CCCCNC(=O)[C@@H]2CCC(=O)N2C(=O)C2CCCCC2)CC1
24 nM	COc1ccccc1N1CCN(CCCCNC(=O)[C@H](CC(N)=O)NC(=O)C2CCCCC2)CC1
40 nM	COc1ccccc1N1CCN(CCCCN2C(=O)C[C@H](NC(=O)C3CCCC3)C2=O)CC1
170 nM	COc1ccccc1N1CCN(CCCN2C(=O)C[C@H](NC(=O)C3CCCC3)C2=O)CC1
11 nM	COc1ccccc1N1CCN(CCCCNC(=O)[C@H](CC(N)=O)NC(=O)CC2CC3CCC2C3)CC1 (some centres undefined)
27 nM	COc1ccccc1N1CCN(CCCCNC(=O)[C@@H]2CCCN2C(=O)C2CCCCC2)CC1
480 nM	COc1ccccc1N1CCN(CCCN2C(=O)C[C@H](NC(C)=O)C2=O)CC1
15 nM	COc1ccccc1N1CCN(CCCCN2C(=O)C[C@H](NC(=O)C34CC5CC(CC(C5)C3)C4)C2=O)CC1
18 nM	COc1ccccc1N1CCN(CCCCN2C(=O)C[C@H](NC(=O)CC3CC4CCC3C4)C2=O)CC1 (some centres undefined)
40 nM	COc1ccccc1N1CCN(CCCN2C(=O)C[C@H](NC(=O)CC3CC4CCC3C4)C2=O)CC1 (some centres undefined)
63 nM	COc1ccccc1N1CCN(CCCN2C(=O)C[C@H](NC(=O)C34CC5CC(CC(C5)C3)C4)C2=O)CC1
69 nM	COc1ccccc1N1CCN(CCCCN2C(=O)C[C@H](NC(C)=O)C2=O)CC1
9 nM	COc1ccccc1N1CCN(CCCCN2C(=O)C[C@@H](NC(=O)C34CC5CC(CC(C5)C3)C4)C2=O)CC1
17 nM	COc1ccccc1N1CCN(CCCCN2C(=O)C[C@@H](NC(=O)C3CCCCC3)C2=O)CC1
17 nM	COc1ccccc1N1CCN(CCCCNC(=O)[C@H]2CCCN2C(=O)CC2CC3CCC2C3)CC1 (some centres undefined)
230 nM	COc1ccccc1N1CCN(CCCN2C(=O)C[C@H](NC(=O)C3CCCCC3)C2=O)CC1
25 nM	COc1ccccc1N1CCN(CCCCNC(=O)[C@H]2CCCN2C(=O)C23CC4CC(CC(C4)C2)C3)CC1
4 nM	COc1ccccc1N1CCN(CCCCNC(=O)[C@@H]2CCCN2C(=O)C23CC4CC(CC(C4)C2)C3)CC1
29 nM	COc1ccccc1N1CCN(CCCCN2C(=O)C[C@H](NC(=O)C3CCCCC3)C2=O)CC1
260 nM	COc1ccccc1N1CCN(CCCN2C(=O)C[C@H](NC(=O)c3ccccc3)C2=O)CC1
12 nM	COc1ccccc1N1CCN(CCCCNC(=O)[C@@H]2CCC(=O)N2C(=O)CC2CC3CCC2C3)CC1 (some centres undefined)
12 nM	COc1ccccc1N1CCN(CCCCNC(=O)[C@@H]2CCCN2C(=O)CC2CC3CCC2C3)CC1 (some centres undefined)
50 nM	COc1ccccc1N1CCN(CCCCN2C(=O)C[C@H](NC(=O)c3ccccc3)C2=O)CC1
17 nM	COc1ccccc1N1CCN(CCCCN2C(=O)C[C@@H](NC(=O)CC3CC4CCC3C4)C2=O)CC1 (stereo in doubt; 9'{5,5})
